Data taken from patent publication US9206156B2, “Substituted indole derivatives” (GRÜNENTHAL GMBH, priority 2008, dated 2015).

What was measured:
ORL1 receptor = molecular target: T1, ORL1 receptor (Homo sapiens, UniProt P41146); assay: ORL1 receptor binding assay with 3H-nociceptin/orphanin FQ (WGA-SPA beads); details: c=1 μM test substance; 0.5 nM 3H-nociceptin/orphanin FQ; membranes of recombinant CHO-ORL1 cells
T1 construct: expressed in transfected cells; host or cells: CHO (recombinant CHO-ORL1 cells), membranes
T1 sequence (P41146 whole entry): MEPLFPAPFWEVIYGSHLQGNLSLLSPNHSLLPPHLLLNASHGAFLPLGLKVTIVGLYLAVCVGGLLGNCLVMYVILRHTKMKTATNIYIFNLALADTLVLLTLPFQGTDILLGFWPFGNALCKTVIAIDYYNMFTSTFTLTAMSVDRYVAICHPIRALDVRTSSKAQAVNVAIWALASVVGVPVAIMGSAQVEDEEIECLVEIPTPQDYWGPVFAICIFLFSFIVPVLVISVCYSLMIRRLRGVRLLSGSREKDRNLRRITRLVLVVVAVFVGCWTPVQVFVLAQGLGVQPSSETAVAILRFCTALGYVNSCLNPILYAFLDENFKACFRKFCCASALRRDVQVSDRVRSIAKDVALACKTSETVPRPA
How it was run: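 Affinity given as nanomolar Ki or as % inhibition at c=1 μM. Membranes of CHO cells expressing recombinant ORL1 (20 μg protein) were incubated one hour at room temperature with 0.5 nM 3H-nociceptin/orphanin FQ in Hepes 50 mM, pH 7.4, plus MgCl2 and EDTA; bound ligand detected by SPA bead scintillation counting.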

human μ-opiate receptor = molecular target: T2, human μ-opiate receptor (Homo sapiens, UniProt P35372); assay: μ-opiate receptor binding assay with [3H] naloxone (WGA-SPA beads); details: 1 μmol/l test substance, 1 nmol/l [3H] naloxone, CHO-K1 cell membranes expressing human μ-opiate receptor
T2 construct: purchased NEN, Zaventem, Belgium RB-HOM; host or cells: CHO-K1 cells (membrane preparation)
T2 sequence (P35372 whole entry): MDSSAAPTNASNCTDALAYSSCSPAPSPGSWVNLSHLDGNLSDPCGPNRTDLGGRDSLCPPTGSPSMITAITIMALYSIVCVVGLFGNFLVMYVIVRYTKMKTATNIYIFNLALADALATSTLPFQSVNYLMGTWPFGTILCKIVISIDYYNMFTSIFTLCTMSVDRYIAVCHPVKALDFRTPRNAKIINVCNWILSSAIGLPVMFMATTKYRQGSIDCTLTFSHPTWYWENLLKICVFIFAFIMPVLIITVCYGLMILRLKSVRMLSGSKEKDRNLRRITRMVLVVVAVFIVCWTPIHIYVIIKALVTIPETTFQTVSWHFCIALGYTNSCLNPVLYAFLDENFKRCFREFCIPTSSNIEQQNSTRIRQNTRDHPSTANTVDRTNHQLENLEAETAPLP
How it was run: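 Scintillation proximity readout: [3H]naloxone (1 nmol/l) displacement measured after 90 min, room temperature, on human μ-receptor CHO-K1 membranes in Tris-HCl/azide/BSA buffer; 25 μmol/l naloxone defined non-specific binding. Values are % specific-binding inhibition at 1 μmol/l, or Ki from IC50 (Cheng-Prusoff).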

COc1ccc2[nH]cc(CNCCN3CCC(c4cccs4)(N(C)C)CC3)c2c1 [Example 188, 1-(2-((5-methoxy-1H-indol-3-yl)methylamino)ethyl)-N,N-dimethyl-4-(thiophen-2-yl)piperidin-4-amine]
inhibition at 1 µM (ORL1 receptor): 85%
inhibition at 1 µM (human μ-opiate receptor): 99%

Cc1c(CN(C)CCN2CCC(c3ccccc3)(N(C)C)CC2)c2ccccc2n1C [Example 189, 1-(2-(((1,2-dimethyl-1H-indol-3-yl)methyl)(methyl)amino)ethyl)-N,N-dimethyl-4-phenylpiperidin-4-amine]
inhibition at 1 µM (ORL1 receptor): 83%
inhibition at 1 µM (human μ-opiate receptor): 100%

COc1ccc2[nH]cc(CN(C)CCN3CCC(c4ccccc4)(N(C)C)CC3)c2c1 [Example 190, 1-(2-(((5-methoxy-1H-indol-3-yl)methyl)(methyl)amino)ethyl)-N,N-dimethyl-4-phenylpiperidin-4-amine]
inhibition at 1 µM (ORL1 receptor): 80%
inhibition at 1 µM (human μ-opiate receptor): 97%

COc1ccc2[nH]cc(CN(C)CCN3CCC(c4ccccc4)(N(C)C)CC3)c2c1 [Example 191, 1-(2-(((5-methoxy-1H-indol-3-yl)methyl)(methyl)amino)ethyl)-N,N-dimethyl-4-phenylpiperidin-4-amine]
% Inhibition (ORL1) at 1 μM (ORL1 receptor): 80%
% Inhibition (μ) at 1 μM (human μ-opiate receptor): 96%

COc1ccc2[nH]cc(CN(C)CCN3CCC(c4ccccc4)(N(C)C)CC3)c2c1 [Example 192, 1-(2-(((5-methoxy-1H-indol-3-yl)methyl)(methyl)amino)ethyl)-N,N-dimethyl-4-phenylpiperidin-4-amine]
% Inhibition (ORL1) at 1 μM (ORL1 receptor): 76%
% Inhibition (μ) at 1 μM (human μ-opiate receptor): 96%

COc1ccc2c(c1)c(CN(C)CCN1CCC(c3ccccc3)(N(C)C)CC1)c(C)n2Cc1ccccc1 [Example 193, 1-(2-(((1-benzyl-5-methoxy-2-methyl-1H-indol-3-yl)methyl)(methyl)amino)ethyl)-N,N-dimethyl-4-phenylpiperidin-4-amine]
inhibition at 1 µM (ORL1 receptor): 68%
inhibition at 1 µM (human μ-opiate receptor): 82%

CN(CCN1CCC(c2ccccc2)(N(C)C)CC1)Cc1cccc2[nH]ccc12 [Example 194, 1-(2-(((1H-indol-4-yl)methyl)(methy)amino)ethyl)-N,N-dimethyl-4-phenylpiperidin-4-amine]
% Inhibition (ORL1) at 1 μM (ORL1 receptor): 56%
% Inhibition (μ) at 1 μM (human μ-opiate receptor): 99%

CN(CCN1CCC(c2ccccc2)(N(C)C)CC1)Cc1cccc2[nH]ccc12 [Example 195, 1-(2-(((1H-indol-4-yl)methyl)(methy)amino)ethyl)-N,N-dimethyl-4-phenylpiperidin-4-amine]
% Inhibition (ORL1) at 1 μM (ORL1 receptor): 56%
% Inhibition (μ) at 1 μM (human μ-opiate receptor): 78%
